The record followed here is patent US8232278B2 (Gilead Sciences, Inc., priority 2005, dated 2012).

Usually CC50 stands for the concentration giving 50% cytotoxicity. For orientation: EC50 means the concentration giving half of the maximal effect.

Where two headings read alike, the source gives them in different places.

Series [1] in a line: CC50 assay in Huh-7 HCV replicon cells (CellTiter-Glo). Format: cell-based, human. The conditions noted are these: human, 50% cytostatic concentration. As to the method:
(§1) The anti-HCV activity of the pyrido[3,2-d]pyrimidine derivatives of this invention was tested in a human hepatoma Huh-7 cell line harbouring a HCV replicon. The assay comprised the following steps:
(§2) Step 1: Compound Preparation and Serial Dilution
(§3) • 1. for water soluble pyrido[3,2-d]pyrimidine derivatives, a volume of 500 μL of solution in cell media (DMEM, 10% FBS, P/S, L-Glutamine) was prepared with a concentration being twice the concentration of the starting final serial dilution concentration. […] The rest of the plate, columns 2-12, was filled with 100 μL of cell media. The plate was then placed on a Precision 2000 Workstation to start the serial dilution. Compounds were diluted three times each step from column 1 to column 10. Column 11 was used as a blank control (no compound added). • 2. for pyrido[3,2-d]pyrimidine derivatives requiring DMSO to dissolve, serial dilution is performed in 50% DMSO in a 384-well plate. A solution containing a compound at 100-fold concentration of the starting final serial dilution concentration was prepared in 50% DMSO and added to the pre-specified wells in column 1 of a polypropylene 384-well plate. The plate was then placed on a Precision 2000 Workstation to start the serial dilution. After the serial dilution, a volume of 2 μL of the solution was transferred from the 384-well plate to a 96-well cell culture plate containing 100 μL of cell media on a Biomek FX Workstation. The DMSO concentration in the final assay condition was 0.5% after cells are added to the plate and the total volume in each well is brought to 200 μL. Step 2: to each well of the serial dilution plate prepared above, 100 μL of cell media containing 6000 suspended Huh-7 HCV replicon cells was added with a Multidrop workstation. The plates were incubated for 3 days at 37° C. with 5% CO2. Step 3: Detection: • a) for the EC50 assay, the media in a 96-well cell culture plate was aspirated with a Biotek EL405 plate-washer. A volume of 200 μL of a solution containing a 1:1 mixture of cell-lysis buffer (Promega, Luciferase Cell Culture Lysis 5× Reagent, cat. #E1531) and luciferase substrate solution (Promega, Luciferase Assay, cat. #E4550) was added to each well of the plate with Multidrop.
(§4) Results in table 7 are expressed by the following data: • the 50% effective concentration (EC50), i.e. the concentration that protects 50% of the cell monolayer from virus-induced cythopathic effect, and • the 50% cytostatic concentration (CC50), i.e. the concentration that results in 50% inhibition of cell growth. Table 7 further indicates the nature of substituents being present in positions 2, 4 and 6 of the pyrido[3,2-d]pyrimidine derivatives of the invention.
A general note: In antiviral work, replicon cells carry a viral genome segment that copies itself.

A further series deals with HCV replicon. The series can be described thus: Anti-HCV assay / replicon assay (EC50, luciferase read-out). Format: cell-based, hepatitis C virus (HCV). To be noted: for CC50/EC50: CC50/EC50 ratio (selectivity index). On the procedure: as §1, §2, §3, §4
A further series relates to Huh-7 HCV replicon cells. The series can be described thus: CC50 assay in Huh-7 HCV replicon cells (CellTiter-Glo). Format: cell-based, human. To be noted: 3 days, 50% cytostatic concentration. On the procedure: as §1, §2, §3, §4
Setting [2] is: Hepatitis C virus, 72 h, human hepatoma Huh-7 cell line harbouring a HCV replicon, 3 days, luciferase luminescence, read-out: EC50.
Where [3] appears, read: human hepatoma Huh-7 cell line harbouring a HCV replicon, 3 days, luciferase luminescence, read-out: EC50.

`Cc1cccc(OCC(=O)N2CCN(c3nc(N)nc4ccc(-c5ccc(F)cc5)nc34)CC2)c1` [Example 370, 2-amino-4-[4-(3-methylphenoxy-acetyl)piperazin-1-yl]-6-(4-fluorophenyl)-pyrido[3,2-d]pyrimidine] displayed a CC50 at 3 days in series [1] of 3400 nM. In addition, the CC50/EC50 with HCV replicon stood at 65. The half-maximal effective concentration (EC50) in the series on HCV replicon (setting [2]) stood at 52 nM.

In series [1], `CC(=O)N1CCN(c2nc(N)nc3ccc(-c4ccc5c(c4)OCO5)nc23)CC1` [Example 184, 2-amino-4-[N-acetyl-piperazin-1-yl]-6-(3,4-methylenedioxyphenyl)-pyrido[3,2-d]pyrimidine] showed a CC50 at 3 days of 21800 nM. For the same compound, the CC50/EC50 in the series with HCV replicon was determined as 128. Moreover, in the series with HCV replicon (setting [2]), the EC50 worked out at 170 nM.

The compound `COCCOc1nc(N)nc2ccc(-c3ccc(OC)c(OC)c3)nc12` [Example 471, 6-(3,4-dimethoxy-phenyl)-4-(2-methoxy-ethoxy)-pyrido[3,2-d]pyrimidin-2-ylamine] showed a CC50 at 3 days in series [1] of 25100 nM. For the same compound, the CC50/EC50 in the series with HCV replicon was 66. The concentration giving a half-maximal response (EC50) in the series on HCV replicon (Hepatitis C virus, Huh-7, 72 h) is 380 nM.

Turning to `COc1ccc(-c2ccc3nc(N)nc(N4CCN(CC(=O)N5CCOCC5)CC4)c3n2)cc1OC` [Example 265, 2-amino-4-[N-(piperazino)-acetyl-morpholino]-6-(3,4-dimethoxyphenyl)-pyrido[3,2-d]pyrimidine], in series [1], it took 2600 nM to reach half-maximal cytotoxicity (CC50 at 3 days). Besides, in the series with HCV replicon, the CC50/EC50 worked out at 84. Also, in the series with HCV replicon (setting [2]), the EC50 amounted to 31 nM.

The compound `COc1ccc(-c2ccc3nc(N)nc(Nc4cccc(Br)c4)c3n2)cc1OC` [Example 34, 2-amino-4-(3-bromo-anilino)-6-(3,4-dimethoxyphenyl)pyrido[3,2-d]-pyrimidine] displayed a 50% cytotoxic concentration (CC50) at 3 days in series [1] of 7700 nM. The CC50/EC50 in the series on HCV replicon was determined as 151. The EC50 in the series on HCV replicon (setting [2]) was determined as 51 nM.

Consider `COc1ccc(-c2ccc3nc(N)nc(N4CCN(CC(=O)NCCc5ccccc5)CC4)c3n2)cc1OC` [Example 260, 2-amino-4-[4-(N-2-phenylethylacetamid-2-yl)piperazin-1-yl]-6-(3,4-dimethoxyphenyl)-pyrido[3,2-d]pyrimidine], for which the midpoint of cytotoxicity in series [1], the CC50 at 3 days, lay at 2600 nM. For the same compound, in the series on HCV replicon, the CC50/EC50 was found to be 73. The EC50 with HCV replicon (setting [2]) was determined as 36 nM.

In the case of `COc1ccc(-c2ccc3nc(N)nc(NCCC(=O)N4CCN(C(C)=O)CC4)c3n2)cc1OC` [Example 262, 2-amino-4-[3-(4-acetylpiperazin-1-yl)-propan-3-one-1-yl-amino]-6-(3,4-dimethoxyphenyl)-pyrido[3,2-d]pyrimidine], the CC50 at 3 days in series [1] amounted to 25100 nM. Further, the CC50/EC50 in the series on HCV replicon turned out to be 261. Further, the EC50 with HCV replicon (setting [2]) is 96 nM.

Compound `COc1ccc(-c2ccc3nc(N)nc(NC4CCN(C(=O)OC(C)(C)C)CC4)c3n2)cc1OC` [Example 246, 2-amino-4-[(1-Boc-piperidin-4-yl)amino]-6-(3,4-dimethoxyphenyl)-pyrido[3,2-d]pyrimidine] yielded a CC50 at 3 days in series [1] of 1500 nM. Besides, in the series with HCV replicon, the CC50/EC50 amounted to 70. Besides, in the series with HCV replicon (setting [2]), the EC50 amounted to 22 nM.

Compound `COc1ccc(-c2ccc3nc(N)nc(NC4CCCN(C(=O)Nc5cccc(C)c5)C4)c3n2)cc1OC` (stereo not drawn) [Example 254, 2-amino-4-[(3-methylphenylcarbamoylpiperidin-3-yl)amino)-6-(3,4-dimethoxyphenyl]-pyrido[3,2-d]pyrimidine] displayed a CC50 at 3 days in series [1] of 7300 nM. Besides, the CC50/EC50 in the series with HCV replicon is 147. The half-maximal effective concentration (EC50) with HCV replicon (setting [2]) was found to be 50 nM.

In series [1], `COc1ccc(-c2ccc3nc(N)nc(N4CCCC(C(=O)NCC(C)C)C4)c3n2)cc1OC` (stereo not drawn) [Example 258, 2-amino-4-[(3-carboxylic acid isobutylamide)-piperidin-1-yl]-6-(3,4-dimethoxyphenyl)-pyrido[3,2-d]pyrimidine] had a CC50 at 3 days of 4200 nM. For the same compound, in the series on HCV replicon, the CC50/EC50 came out at 56. Further, the EC50 in the series with HCV replicon (setting [2]) is 74 nM.

In series [1], `CCC(C)Oc1nc(N)nc2ccc(-c3ccc(F)cc3)nc12` (stereo not drawn) [Example 296, 2-amino-4-sec. butoxy-6-(p-fluorophenyl)-pyrido[3,2-d]pyrimidine] came in with a CC50 at 3 days of 37500 nM. The CC50/EC50 in the series on HCV replicon was 67. Besides, the EC50 in the series on HCV replicon (setting [2]) was 560 nM.

`Nc1nc(N2CCN(C(=O)COc3cccc(Cl)c3)CC2)c2nc(-c3ccc(F)cc3)ccc2n1` [Example 371, 2-amino-4-[4-(3-chlorophenoxy-acetyl)piperazin-1-yl]-6-(4-fluorophenyl)-pyrido[3,2-d]pyrimidine] gave a CC50 at 3 days in series [1] of 25100 nM. Besides, the CC50/EC50 in the series on HCV replicon was determined as 837. In addition, the EC50 in the series on HCV replicon (setting [2]) is 30 nM.

`Nc1ccc(-c2ccc3nc(N)nc(N4CCOCC4)c3n2)cc1` [Example 502, 6-(4-amino-phenyl)-4-morpholin-4-yl-pyrido[3,2-d]pyrimidin-2-ylamine] displayed a CC50 at 3 days in series [1] of 8100 nM. The CC50/EC50 in the series on HCV replicon amounted to 82. The EC50 in the series with HCV replicon (Hepatitis C virus, Huh-7, 72 h) stood at 99 nM.

In series [1], `Nc1nc(OCC(F)(F)F)c2nc(-c3ccc(F)cc3)ccc2n1` [Example 351, 2-amino-4-(trifluoroethoxy)-6-(4-fluorophenyl)-pyrido[3,2-d]pyrimidine] had a CC50 at 3 days of 25100 nM. Besides, in the series on HCV replicon, the CC50/EC50 was determined as 132. For the same compound, the EC50 with HCV replicon (setting [2]) turned out to be 190 nM.

Take `CCOc1nc(N)nc2ccc(-c3cccc(F)c3)nc12` [Example 280, 2-amino-4-ethoxy-6-(m-fluorophenyl)-pyrido[3,2-d]-pyrimidine]: the CC50 at 3 days in series [1] was 37500 nM. Besides, the CC50/EC50 with HCV replicon was 125. In addition, the EC50 with HCV replicon (setting [2]) is 300 nM.

For `CC(=O)Nc1ccc(-c2ccc3nc(N)nc(N4CCOCC4)c3n2)cc1` [Example 500, N-[4-(2-amino-4-morpholin-4-yl-pyrido[3,2-d]pyrimidin-6-yl)-phenyl]-acetamide], in series [1], the midpoint of cytotoxicity, the CC50 at 3 days, lay at 36000 nM. Moreover, in the series with HCV replicon, the CC50/EC50 is 735. In the series on HCV replicon (setting [2]), the EC50 was found to be 49 nM.

Regarding `Nc1nc(N2CCN(C(=O)COc3ccc(F)cc3)CC2)c2nc(-c3ccc(F)cc3)ccc2n1` [Example 373, 2-amino-4-[4-(4-fluorophenoxy-acetyl)piperazin-1-yl]-6-(4-fluorophenyl)-pyrido[3,2-d]pyrimidine], the CC50 at 3 days in series [1] was found to be 19200 nM. The CC50/EC50 with HCV replicon turned out to be 148. In the series with HCV replicon (setting [2]), the EC50 amounted to 130 nM.

In turn, `CC(C)C(=O)Nc1ccc(-c2ccc3nc(N)nc(N4CCOCC4)c3n2)cc1` [Example 501, N-[4-(2-amino-4-morpholin-4-yl-pyrido[3,2-d]pyrimidin-6-yl)-phenyl]-isobutyramide] gave a cytotoxic concentration (CC50) at 3 days in series [1] of 7300 nM. Further, the CC50/EC50 in the series on HCV replicon amounted to 149. For the same compound, the EC50 in the series with HCV replicon (setting [2]) is 49 nM.

In series [1], `Nc1nc(N2CCN(C(=O)COc3ccc(Cl)cc3)CC2)c2nc(-c3ccc4c(c3)OCO4)ccc2n1` [Example 187, 2-amino-4-[N-(4-chlorophenoxy-acetyl)-piperazin-1-yl]-6-(3,4-methylenedioxyphenyl)-pyrido[3,2-d]pyrimidine] showed a CC50 at 3 days of 1200 nM. For the same compound, in the series on HCV replicon, the CC50/EC50 came to 64. Also, the half-maximal effective concentration (EC50) with HCV replicon (setting [2]) was 19 nM.

In series [1], `CC(=O)Nc1ccc(-c2ccc3nc(N)nc(OC(C)C)c3n2)cc1` [Example 355, 2-amino-4-(isopropoxy)-6-(p-acetamidophenyl)-pyrido(3,2-d)pyrimidine] came in with a CC50 at 3 days of 25100 nM. The CC50/EC50 in the series on HCV replicon is 120. Also, the EC50 in the series with HCV replicon (setting [2]) worked out at 210 nM.

With `CSc1nc(N)nc2ccc(-c3ccc(F)cc3)nc12` [Example 392, 2-amino-4-thiomethyl-6-(4-fluorophenyl)-pyrido(3,2-d)pyrimidine], in the series on Huh-7 HCV replicon cells, it took 25100 nM to reach half-maximal cytotoxicity (CC50). Moreover, in the series with HCV replicon, the CC50/EC50 is 512. In addition, the EC50 on HCV replicon (setting [3]) was determined as 49 nM.

Take `CC(C)Sc1nc(N)nc2ccc(-c3ccc(F)cc3)nc12` [Example 394, 2-amino-4-thioisopropyl-6-(4-fluorophenyl)pyrido(3,2-d)pyrimidine]: in the series with Huh-7 HCV replicon cells, the CC50 is 50100 nM. In addition, the CC50/EC50 in the series with HCV replicon is on record as 268. Besides, the EC50 at HCV replicon (setting [3]) was 187 nM.

With `Nc1nc(N2CCN(C(=O)COc3ccc(Cl)cc3)CC2)c2nc(-c3ccsc3)ccc2n1` [Example 382, 2-amino-4-[N-(4-chlorophenoxyacetyl)piperazin-1-yl]-6-(thiophen-3-yl)pyrido-[3,2-d]pyrimidine], in the series on Huh-7 HCV replicon cells, it took 13100 nM to reach half-maximal cytotoxicity (CC50). In the series on HCV replicon, the CC50/EC50 is listed as 1523. The 50% effective concentration (EC50) on HCV replicon (setting [3]) was found to be 9 nM.
